Measurements: patent US11566007B2, “Ras inhibitors” (Revolution Medicines, Inc., priority 2019, dated 2023)
Where two headings read alike, the source gives them in different places.

Legend:
[1] = molecular target: NRAS G12C (Homo sapiens (Human), UniProt P01111+P62937, G12C); test: Ras-Raf (BRAF RBD) disruption / FRET / MOA assay, NRAS G12C; type: biochemical
Outline: (§1)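 Compound-driven ternary complex of nucleotide-loaded Ras with cyclophilin A, disrupting BRAF RBD binding. 10-point 3-fold dilution from 30 μM final, 3 h at 25° C, then anti-His Eu-W1024 (10 nM) and anti-GST allophycocyanin (50 nM) for 1.5 h. IC50 from TR-FRET ratio decrease versus DMSO.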

[2] = test system: NCI-H358 (K-Ras G12C); test: CellTiter-Glo cell viability assay, NCI-H358; type: cell-based, human; conditions: Homo sapiens, NCI-H358, 120 h, NCI-H358, 5-day treatment; class symbols; read-out: Additional H358 Cell Viability assay data (K-Ras G12C, IC50)
Outline: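 Viability of K-Ras mutant lines is measured by ATP luminescence after five days of compound treatment. Percent of DMSO control is calculated and dose-response data are fitted with a four-parameter logistic equation.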

[3] = molecular target: KRAS WT (Homo sapiens (Human), UniProt P01116+P62937); test: Ras-Raf (BRAF RBD) disruption / FRET / MOA assay, KRAS WT; type: biochemical
Outline: as §1

[4] = molecular target: KRAS G12D (Homo sapiens (Human), UniProt P01116+P62937, G12D); test: Ras-Raf (BRAF RBD) disruption / FRET / MOA assay, KRAS G12D; type: biochemical; conditions: class symbols
Outline: as §1

[5] = molecular target: KRAS G12V (Homo sapiens (Human), UniProt P01116+P62937, G12V); test: Ras-Raf (BRAF RBD) disruption / FRET / MOA assay, KRAS G12V; type: biochemical
Outline: as §1

[6] = test system: NCI-H358 cells (K-Ras G12C); test: Potency assay: pERK in NCI-H358 cells; type: cell-based, human; conditions: Homo sapiens, NCI-H358; H358 KRAS G12C; read-out: pERK EC50
Outline: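 4 h cpd, 37 °C; 10-pt 3-fold series, 10 mM DMSO top stock, duplicates. Readout pERK: AlphaLISA SureFire Ultra or In-Cell Western (IR-800CW secondary, DRAQ5 DNA stain). IC50, 4-PL fit vs log conc.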

[7] = molecular target: K-Ras G12C (Homo sapiens (Human), UniProt P01116+P62937, G12C); test: Ras-Raf (BRAF RBD) disruption / FRET / MOA assay, KRAS G12C; type: biochemical; conditions: KRAS G12C, Ras-Raf disruption/FRET/MOA assay
Outline: as §1

[8] = molecular target: KRAS G12S (Homo sapiens (Human), UniProt P01116+P62937, G12S); test: Ras-Raf (BRAF RBD) disruption / FRET / MOA assay, KRAS G12S; type: biochemical; conditions: class symbols
Outline: as §1

[9] = molecular target: KRAS G13D (Homo sapiens (Human), UniProt P01116+P62937, G13D); test: Ras-Raf (BRAF RBD) disruption / FRET / MOA assay, KRAS G13D; type: biochemical
Outline: as §1

[10] = molecular target: K-Ras G13C (Homo sapiens (Human), UniProt P01116+P62937, G13C); test: Ras-Raf (BRAF RBD) disruption / FRET / MOA assay, KRAS G13C; type: biochemical; conditions: KRAS G13C, Ras-Raf disruption/FRET/MOA assay
Outline: as §1

[11] = read-out: IC50* NRAS G12C FRET data
[12] = read-out: IC50* KRAS WT FRET data
[13] = Ras-Raf disruption/FRET/MOA assay, read-out: KRAS G12D FRET data IC50
[14] = read-out: IC50* KRAS G12V FRET data
[15] = read-out: IC50* KRAS G12C FRET data
[16] = Ras-Raf disruption/FRET/MOA assay, read-out: KRAS G12S FRET data IC50
[17] = read-out: IC50* KRAS G13D FRET data
[18] = read-out: IC50* KRAS G13C FRET data

KRAS G12S, sequence (P01116-2 other isoform, or with tags, fused parts or gaps G12S): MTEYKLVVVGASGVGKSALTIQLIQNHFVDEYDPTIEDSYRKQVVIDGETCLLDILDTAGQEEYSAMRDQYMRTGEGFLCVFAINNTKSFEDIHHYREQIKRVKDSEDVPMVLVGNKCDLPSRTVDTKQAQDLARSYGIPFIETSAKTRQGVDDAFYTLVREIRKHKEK
KRAS G12S, sequence (P62937 whole entry): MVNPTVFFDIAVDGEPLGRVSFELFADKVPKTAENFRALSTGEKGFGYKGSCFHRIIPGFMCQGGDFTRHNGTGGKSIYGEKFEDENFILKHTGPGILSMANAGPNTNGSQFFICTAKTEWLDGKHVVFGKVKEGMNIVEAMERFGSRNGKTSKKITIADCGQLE
KRAS WT, sequence (P01116-2 other isoform, or with tags, fused parts or gaps): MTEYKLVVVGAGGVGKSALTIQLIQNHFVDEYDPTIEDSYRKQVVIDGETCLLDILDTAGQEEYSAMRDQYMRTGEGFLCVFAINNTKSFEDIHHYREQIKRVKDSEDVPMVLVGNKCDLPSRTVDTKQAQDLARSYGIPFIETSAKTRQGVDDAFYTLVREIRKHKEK
KRAS WT, sequence (P62937 whole entry): as the sequence (P62937 whole entry) above
NRAS G12C, sequence (P01111 whole entry G12C): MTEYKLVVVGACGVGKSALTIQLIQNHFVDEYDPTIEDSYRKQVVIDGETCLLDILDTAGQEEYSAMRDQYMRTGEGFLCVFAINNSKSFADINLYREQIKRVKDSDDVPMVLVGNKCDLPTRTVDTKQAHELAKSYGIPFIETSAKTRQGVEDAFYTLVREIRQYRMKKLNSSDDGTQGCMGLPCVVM
NRAS G12C, sequence (P62937 whole entry): as the sequence (P62937 whole entry) above
KRAS G12D, sequence (P01116-2 other isoform, or with tags, fused parts or gaps G12D): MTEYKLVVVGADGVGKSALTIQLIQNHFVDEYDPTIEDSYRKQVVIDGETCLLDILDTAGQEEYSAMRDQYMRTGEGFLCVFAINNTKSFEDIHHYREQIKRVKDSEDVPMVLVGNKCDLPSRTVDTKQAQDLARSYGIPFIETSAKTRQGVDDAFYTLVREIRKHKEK
KRAS G12D, sequence (P62937 whole entry): as the sequence (P62937 whole entry) above
K-Ras G12C, sequence (P01116-2 other isoform, or with tags, fused parts or gaps G12C): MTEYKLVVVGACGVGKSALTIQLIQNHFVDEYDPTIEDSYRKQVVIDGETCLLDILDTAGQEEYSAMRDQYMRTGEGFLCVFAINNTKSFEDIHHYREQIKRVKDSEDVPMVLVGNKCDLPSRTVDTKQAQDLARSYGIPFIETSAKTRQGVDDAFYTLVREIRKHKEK
K-Ras G12C, sequence (P62937 whole entry): as the sequence (P62937 whole entry) above
KRAS G12V, sequence (P01116-2 other isoform, or with tags, fused parts or gaps G12V): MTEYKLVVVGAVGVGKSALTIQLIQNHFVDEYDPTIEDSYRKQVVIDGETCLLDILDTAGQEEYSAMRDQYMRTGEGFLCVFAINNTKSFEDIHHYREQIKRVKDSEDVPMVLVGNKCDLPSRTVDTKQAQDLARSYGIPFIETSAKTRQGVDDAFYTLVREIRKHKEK
KRAS G12V, sequence (P62937 whole entry): as the sequence (P62937 whole entry) above
K-Ras G13C, sequence (P01116-2 other isoform, or with tags, fused parts or gaps G13C): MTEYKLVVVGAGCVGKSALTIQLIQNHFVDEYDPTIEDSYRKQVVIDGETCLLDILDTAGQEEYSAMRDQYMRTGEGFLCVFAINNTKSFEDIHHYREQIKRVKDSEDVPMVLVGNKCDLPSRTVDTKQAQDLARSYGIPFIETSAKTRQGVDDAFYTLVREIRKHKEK
K-Ras G13C, sequence (P62937 whole entry): as the sequence (P62937 whole entry) above
KRAS G13D, sequence (P01116-2 other isoform, or with tags, fused parts or gaps G13D): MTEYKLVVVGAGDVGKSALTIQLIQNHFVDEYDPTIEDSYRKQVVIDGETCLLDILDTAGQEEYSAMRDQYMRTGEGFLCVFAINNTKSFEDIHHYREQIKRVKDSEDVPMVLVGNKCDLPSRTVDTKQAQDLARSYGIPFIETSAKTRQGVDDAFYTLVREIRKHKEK
KRAS G13D, sequence (P62937 whole entry): as the sequence (P62937 whole entry) above

IC50 ([1]; IC50* NRAS G12C FRET data) | IC50 ([3]; IC50* KRAS WT FRET data) | IC50 ([4]; KRAS G12D FRET data IC50, Ras-Raf disruption/FRET/MOA assay) | IC50 ([5]; IC50* KRAS G12V FRET data) | IC50 ([7]; IC50* KRAS G12C FRET data) | IC50 ([8]; KRAS G12S FRET data IC50, Ras-Raf disruption/FRET/MOA assay) | IC50 ([9]; IC50* KRAS G13D FRET data) | IC50 ([10]; IC50* KRAS G13C FRET data) | SMILES | IC50 [1, 11] | IC50 [2] | IC50 [3, 12] | IC50 [4, 13] | IC50 [5, 14] | EC50 [6] | IC50 [7, 15] | IC50 [8, 16] | IC50 [9, 17] | IC50 [10, 18]
– | – | – | – | – | – | – | – | C=CC(=O)N1C[C@H](F)[C@](F)(C(=O)N(C)[C@H](C(=O)N[C@H]2Cc3cccc(c3)-c3ccc4c(c3)c(c(-c3cccnc3[C@H](C)OC)n4CC)CC(C)(C)COC(=O)[C@@H]3CCCN(N3)C2=O)C(C)C)C1 (atropisomer, axis not shown) [Example A397] | 10 to 100 nM | < 10 nM | 100 to 1000 nM | 1000 to 10000 nM | 100 to 1000 nM | < 5000 nM | 10 to 100 nM | 100 to 1000 nM | 100 to 1000 nM | 10 to 100 nM
– | – | – | – | – | – | – | – | C=CC(=O)N1CC[C@H](C(=O)N(C)[C@H](C(=O)N[C@H]2Cc3cc(O)cc(c3)-c3ccc4c(c3)c(c(-c3cc(CN(C)C)nn3C)n4CC)CC(C)(C)COC(=O)[C@@H]3CCCN(N3)C2=O)C(C)C)C1 [Example A109] | 100 to 1000 nM | 100 to 1000 nM | > 10000 nM | > 10000 nM | 1000 to 10000 nM | < 5000 nM | 100 to 1000 nM | 1000 to 10000 nM | > 10000 nM | > 10000 nM
– | – | – | – | – | – | – | – | CCn1c(-c2cccnc2)c2c3cc(ccc31)-c1cccc(c1)C[C@H](NC(=O)[C@H](C(C)C)N(C)C(=O)[C@H]1CCN(C(=O)C#CCN3CCOCC3)C1)C(=O)N1CCC[C@H](N1)C(=O)OCC(C)(C)C2 [Example A195] | 100 to 1000 nM | 100 to 1000 nM | > 10000 nM | > 10000 nM | > 10000 nM | < 5000 nM | 100 to 1000 nM | > 10000 nM | > 10000 nM | > 10000 nM
– | – | – | – | – | – | – | – | C=CC(=O)N1CC[C@H](C(=O)N(C)[C@H](C(=O)N[C@H]2Cc3cc(O)cc(c3)-c3ccc4c(c3)c(c(-c3cnccc3[C@H](C)OC)n4CC)CC(C)(C)COC(=O)[C@@H]3CCCN(N3)C2=O)C(C)C)C1 [Example A112] | 100 to 1000 nM | 10 to 100 nM | 1000 to 10000 nM | > 10000 nM | 1000 to 10000 nM | < 5000 nM | 100 to 1000 nM | 1000 to 10000 nM | 1000 to 10000 nM | 1000 to 10000 nM
10 to 100 nM | 100 to 1000 nM | 1000 to 10000 nM | 10 to 100 nM | 10 to 100 nM | 100 to 1000 nM | 100 to 1000 nM | 10 to 100 nM | CCn1c(-c2cccnc2[C@H](C)OC)c2c3cc(ccc31)-c1cc(O)cc(c1)C[C@H](NC(=O)[C@H](C(C)C)N(C)C(=O)[C@H]1CCN(S(=O)(=O)C=C(C)C)C1)C(=O)N1CCC[C@H](N1)C(=O)OCC(C)(C)C2 (atropisomer, axis not shown) [Example A305] | – | 10 to 100 nM | – | – | – | < 5000 nM | – | – | – | –
– | – | – | – | – | – | – | – | C=CC(=O)N1CC[C@](F)(C(=O)N(C)[C@H](C(=O)N[C@H]2Cc3cccc(c3)-c3ccc4c(c3)c(c(-c3cccnc3[C@H](C)OC)n4CC)CC(C)(C)COC(=O)[C@@H]3CCCN(N3)C2=O)C(C)C)C1 (atropisomer, axis not shown) [Example A501] | 10 to 100 nM | 10 to 100 nM | 100 to 1000 nM | 1000 to 10000 nM | 1000 to 10000 nM | < 5000 nM | 10 to 100 nM | 1000 to 10000 nM | 1000 to 10000 nM | 100 to 1000 nM
– | – | – | – | – | – | – | – | CCn1c(-c2cccnc2[C@H](C)OC)c2c3cc(ccc31)-c1cccc(c1)C[C@H](NC(=O)[C@H](C(C)C)N(C)C(=O)[C@H]1CCN(C(=O)/C=C/CF)C1)C(=O)N1CCC[C@H](N1)C(=O)OCC(C)(C)C2 [Example A449] | 100 to 1000 nM | 10 to 100 nM | 1000 to 10000 nM | > 10000 nM | 1000 to 10000 nM | < 5000 nM | 100 to 1000 nM | 1000 to 10000 nM | 1000 to 10000 nM | 100 to 1000 nM
